# Assay results: patent publication US20060147382A1, “Synergistic combination comprising roflumilast and an anticholinergic agent selected from ipratropium, oxitropium and tiotropium salts for the treatment of respiratory diseases” (Altana Pharma AG, priority 2003, published 2006)
# Tested on: methacholine-induced bronchoconstriction in guinea pigs
# Experiment: Inhibition of methacholine-induced bronchoconstriction in anaesthetized, mechanically ventilated guinea pigs
# Assay type: in vivo, guinea pig
# Settings: for Effect on methacholine-induced bronchospasm (in words): versus placebo, ANOVA and Dunnett's test, ROFLUMILAST 4 mg/kg intratracheally, tiotropium-bromide 1 μg/kg i.v.
# Protocol: Inhibition of Methacholine-Induced Bronchoconstriction in Guinea Pigs by ROFLUMILAST in combination with tiotropium-bromide
# To assess the inhibitory effect of tiotropium-bromide, ROFLUMILAST, and the combination of both compounds on methacholine-induced bronchoconstriction in anaesthetized, mechanically ventilated guinea pigs.
# Male Dunkin Hartley guinea pigs; body weight 350-450 g when performing the experiments.
# 75 min before methacholine-induced bronchospasm (at −75 min) animals were anaesthetized with urethane i.p. (1.2 g/kg). At −55 min for I.v. injections the right jugular vein and for ventilation the trachea was cannulated. At −45 min NaCl 0.9% or tiotropium-bromide was administered I.v. (1 μg/kg). At −30 min lactose (10 mg/kg) or ROFLUMILAST (4 mg/kg) mixed with lactose was administered intratracheally by a dry powder aerolizer. At −10 min pancuronium-bromide (1.5 mg/kg) was administered I.v. to abolish spontaneous breathing. Animals were mechanically ventilated with 60 breath/min and a tidal volume of 7 ml/kg. Dynamic lung compliance (COM) and airway conductance (CON) were calculated with the help of a computer system from airflow and ventilation pressure signals. At t=0 min methacholine was administered i.v. (60 μg/kg) to induce bronchoconstriction.
# COM and CON were determined up to 120 s after methacholine-induced bronchospasm. AUCs for 0 to 120s were determined. Inhibition was calculated based on the AUC data. Data are shown as mean ±SEM. Results were taken to be significant if p<0.05 versus placebo (ANOVA and Dunnett's multiple comparison test)
# [1] = male Dunkin Hartley guinea pigs, methacholine 60 μg/kg i.v., ROFLUMILAST 4 mg/kg intratracheally at -30 min, tiotropium-bromide 1 μg/kg i.v. at -45 min
Structure (SMILES),"Inhibition of methacholine-induced airway conductance (CON) decrease, based on AUC 0 to 120 s [1]",Effect on methacholine-induced bronchospasm (in words),"Inhibition of methacholine-induced dynamic lung compliance (COM) decrease, based on AUC 0 to 120 s [1]"
"O=C(Nc1c(Cl)cncc1Cl)c1ccc(OC(F)F)c(OCC2CC2)c1 [ROFLUMILAST, 3-cyclopropylmethoxy-4-difluoromethoxy-N-(3,5-dichloropyrid-4-yl)benzamide]",5.6%,no significant effect,–
C[N+]1(C)[C@@H]2C[C@@H](OC(=O)C(O)(c3cccs3)c3cccs3)C[C@H]1[C@@H]1O[C@@H]12 [tiotropium-bromide],5.9%,no significant effect,12%
